# Patent US12473333B2, “Method for increasing ETEC CS6 antigen presentation on cell surface and products obtainable thereof” (Scandinavian Biopharma Holding AB, priority 2011, dated 2025)
# Like-named read-outs stand apart in the source and are kept apart here.
# Test system: CS6 expressing bacteria
# Procedure: These inactivated bacteria were then used for oral immunizations of mice.
# The suspensions were incubated for 2 h at 37° C. with shaking at 60 rpm, and then kept at 4° C. for 3 days without agitation. The bacterial suspensions were then centrifuged, washed, and re-suspended in the same volume of PBS and kept at 4° C. until use. In both inactivation methods, 0.1 ml of each suspension was spread onto blood agar and incubated at 37° C. for up to one week to check for lack of growth. Before being used for oral immunization, the level of CS6 on the inactivated bacteria was checked by inhibition ELISA.
compound,measurement,setting,value
Oc1ccccc1 [phenol],killing of the bacteria,0.25% phenol,did not result in complete killing of the bacteria
same,killing of the bacteria,"0.5% phenol, data not shown",killed the tested bacteria
